From US6337346B1 (University of North Carolina at Chapel Hill, priority 1998, dated 2002) come the findings set out here.

Like-named read-outs stand apart in the source and are kept apart here.

One data set concerns LOX IMVI. The data set can be described thus: NCI in vitro disease-oriented tumor cells screen. The data set is classed as cell-based, human. The note with it: Melanoma LOX IMVI, Table 2 (numbering of Examples 1-13), average of at least two testings; for GI50: Homo sapiens, read-out: Cytotoxicity log GI50 (converted).
A further data set concerns MALME-3M. The data set can be described thus: NCI in vitro disease-oriented tumor cells screen. The data set is classed as cell-based, human. As to conditions: Melanoma MALME-3M, Table 2, average of at least two testings; for GI50: Homo sapiens, read-out: Cytotoxicity log GI50 (converted).
Another data set deals with M14. The data set can be described thus: NCI in vitro disease-oriented tumor cells screen. The data set is classed as cell-based, human. The note with it: Melanoma M14, Table 2, average of at least two testings; for GI50: Homo sapiens, read-out: Cytotoxicity log GI50 (converted).
In another data set the test system is SK-MEL-2. The data set can be described thus: NCI in vitro disease-oriented tumor cells screen. The note with it: Melanoma SK-MEL-2, Table 2, average of at least two testings; for GI50: Homo sapiens, read-out: Cytotoxicity log GI50 (converted). The format is cell-based, human.
Another data set concerns SK-MEL-28. As to the kind of experiment: NCI in vitro disease-oriented tumor cells screen. As to conditions: Melanoma SK-MEL-28, Table 2, average of at least two testings; for GI50: Homo sapiens, read-out: Cytotoxicity log GI50 (converted). The data set is classed as cell-based, human.
The next data set deals with SK-MEL-5. The data set can be described thus: NCI in vitro disease-oriented tumor cells screen. The data set is classed as cell-based, human. The note with it: Melanoma SK-MEL-5, Table 2 (numbering of Examples 1-13), average of at least two testings; for GI50: Homo sapiens, read-out: Cytotoxicity log GI50 (converted).
Another data set has as its system UACC-257. The data set can be described thus: NCI in vitro disease-oriented tumor cells screen. The format is cell-based, human. The note with it: Melanoma UACC-257, Table 2, average of at least two testings; for GI50: Homo sapiens, read-out: Cytotoxicity log GI50 (converted).
In a further data set the test system is UACC-62. The data set can be described thus: NCI in vitro disease-oriented tumor cells screen. The note with it: Melanoma UACC-62, Table 2, average of at least two testings; for GI50: Homo sapiens, read-out: Cytotoxicity log GI50 (converted). The data set is classed as cell-based, human.
In another data set the test system is HL-60(TB). As to the kind of experiment: NCI in vitro disease-oriented tumor cells screen. The data set is classed as cell-based, human. The note with it: Leukemia HL-60(TB), Table 2, average of at least two testings; for GI50: Homo sapiens, read-out: Cytotoxicity log GI50 (converted).
Another data set has as its system NCI-H23. As to the kind of experiment: NCI in vitro disease-oriented tumor cells screen. The format is cell-based, human. The note with it: Non-Small Cell Lung Cancer NCI-H23, Table 2 (numbering of Examples 1-13), average of at least two testings; for GI50: Homo sapiens, read-out: Cytotoxicity log GI50 (converted).
The test system of the next data set is NCI-H522. The data set can be described thus: NCI in vitro disease-oriented tumor cells screen. The data set is classed as cell-based, human. As to conditions: Non-Small Cell Lung Cancer NCI-H522, Table 2, average of at least two testings; for GI50: Homo sapiens, read-out: Cytotoxicity log GI50 (converted).
In a further data set the test system is OVCAR-3. As to the kind of experiment: NCI in vitro disease-oriented tumor cells screen. The note with it: Ovarian Cancer OVCAR-3, Table 2 (numbering of Examples 1-13), average of at least two testings; for GI50: Homo sapiens, read-out: Cytotoxicity log GI50 (converted). The format is cell-based, human.
Another data set relates to OVCAR-8. The data set can be described thus: NCI in vitro disease-oriented tumor cells screen. As to conditions: Ovarian Cancer OVCAR-8, Table 2, average of at least two testings; for GI50: Homo sapiens, read-out: Cytotoxicity log GI50 (converted). The format is cell-based, human.
Another data set relates to HS 578T. As to the kind of experiment: NCI in vitro disease-oriented tumor cells screen. The data set is classed as cell-based, human. The note with it: Breast Cancer HS 578T, Table 2, average of at least two testings; for GI50: Homo sapiens, read-out: Cytotoxicity log GI50 (converted).
Another data set relates to MDA-MB-435. As to the kind of experiment: NCI in vitro disease-oriented tumor cells screen. The format is cell-based, human. As to conditions: Breast Cancer MDA-MB-435, Table 2 (numbering of Examples 1-13), average of at least two testings; for GI50: Homo sapiens, read-out: Cytotoxicity log GI50 (converted).
In another data set the test system is MDA-N. The data set can be described thus: NCI in vitro disease-oriented tumor cells screen. The note with it: Breast Cancer MDA-N, Table 2 (numbering of Examples 1-13), average of at least two testings; for GI50: Homo sapiens, read-out: Cytotoxicity log GI50 (converted). The data set is classed as cell-based, human.
A further data set relates to BT-549. As to the kind of experiment: NCI in vitro disease-oriented tumor cells screen. The note with it: Breast Cancer BT-549, Table 2, average of at least two testings; for GI50: Homo sapiens, read-out: Cytotoxicity log GI50 (converted). The data set is classed as cell-based, human.
Data set [1] concerns human tumor cell lines.
Excerpt: (§1) (Activity is defined as log GI50<−4 where GI50 is the molar concentration causing 50% cell growth inhibition).
Data set [2] concerns human tumor cell lines. The data set can be described thus: NCI in vitro screen, mean over all cell lines tested. The note with it: for GI50: Homo sapiens, read-out: Cytotoxicity log GI50, Mean Value (converted); for Cytotoxicity log GI50, Mean Value: Mean value over all cell lines tested (58 human tumor cell lines), Table 2 (numbering of Examples 1-13).
Excerpt: as §1

Excerpt for BT-549: as §1
Excerpt for HL-60(TB): as §1
Excerpt for HS 578T: as §1
Excerpt for LOX IMVI: as §1
Excerpt for M14: as §1
Excerpt for MALME-3M: as §1
Excerpt for MDA-MB-435: as §1
Excerpt for MDA-N: as §1
Excerpt for NCI-H23: as §1
Excerpt for NCI-H522: as §1
Excerpt for OVCAR-3: as §1
Excerpt for OVCAR-8: as §1
Excerpt for SK-MEL-28: as §1
Excerpt for SK-MEL-5: as §1
Excerpt for UACC-257: as §1
Excerpt for UACC-62: as §1

As to `CC(=O)OC(C)c1cc2c(s1)C(=O)c1ccsc1C2=O` (stereo not shown) [Compound 11, 2-(1′-Acetoxyethyl)-4,8-dihydrobenzo[1,2-b:4,5-b′]dithiophene-4,8-dione], the GI50 was less than 10 nM with LOX IMVI; less than 10 nM in the data set with MALME-3M; 12.9 nM in the data set on M14; 26.3 nM in the data set with SK-MEL-2; 19.1 nM with SK-MEL-28; 13.5 nM with SK-MEL-5. Further, the GI50 in the data set on UACC-257 was 25.1 nM; in the data set on UACC-62 it was 17 nM; in the data set with HL-60(TB), less than 10 nM; in the data set with NCI-H23 it was 11.2 nM; in the data set on NCI-H522, 148 nM; in the data set on OVCAR-3 it was less than 10 nM. Besides, the GI50 with OVCAR-8 is 36.3 nM; in the data set on HS 578T it was 155 nM; in the data set with MDA-MB-435, less than 10 nM; in the data set on MDA-N it was less than 10 nM; in the data set on BT-549, 45.7 nM; with human tumor cell lines [2], 39.8 nM. Moreover, the “Cytotoxicity log GI50, Mean Value” in the data set with human tumor cell lines [1] (human) is reported as −7.40 M.

On to `CC(=O)c1cc2c(s1)C(=O)c1c(C(C)=O)csc1C2=O` [Compound 13, 2,7-Diacetyl-4,8-dihydrobenzo[1,2-b:4,5-b′]dithiophene-4,8-dione], for which the GI50 with LOX IMVI is 1050 nM; with MALME-3M, 1320 nM; in the data set on M14 it was 1510 nM; with SK-MEL-2, 1740 nM; with SK-MEL-28, 1780 nM; in the data set on SK-MEL-5 it was 1200 nM. For the same compound, the GI50 was 562 nM with UACC-257; 1950 nM in the data set on UACC-62; 52.5 nM in the data set on HL-60(TB); 1320 nM in the data set with NCI-H23; 525 nM in the data set on NCI-H522; 229 nM in the data set on OVCAR-3. Further, the GI50 in the data set with OVCAR-8 was 1450 nM; in the data set with HS 578T, 2400 nM; in the data set with MDA-MB-435 it was 178 nM; with MDA-N, 174 nM; with BT-549 it was 1740 nM; in the data set on human tumor cell lines [2], 1170 nM. Also, the “overall cytotoxicity / potency (in words)” value with human tumor cell lines [1] is “less active in all cell lines”.

As to `CC(O)c1cc2c(s1)C(=O)c1c(C(C)O)csc1C2=O` (stereo not shown) [Compound 14, 2,7-Bis(1′-hydroxyethyl)-4,8-dihydrobenzo [1,2-b:4,5-b′]dithiophene-4,8-dione], the GI50 in the data set with LOX IMVI was 55 nM; in the data set with MALME-3M, 27.5 nM; in the data set on M14, 57.5 nM; in the data set with SK-MEL-2, 112 nM; in the data set on SK-MEL-28, 186 nM; with SK-MEL-5 it was 12.6 nM. The GI50 in the data set on UACC-257 is 61.7 nM; in the data set with UACC-62 it was 32.4 nM; with HL-60(TB), 11.2 nM; in the data set on NCI-H23 it was 33.9 nM; in the data set on NCI-H522 it was 302 nM; with OVCAR-3 it was 11.7 nM. The GI50 with OVCAR-8 is 219 nM; in the data set with HS 578T it was 316 nM; in the data set on MDA-MB-435 it was 17.8 nM; in the data set with MDA-N, 20.9 nM; in the data set with BT-549 it was 162 nM; in the data set with human tumor cell lines [2] it was 148 nM. Further, the “overall cytotoxicity / potency (in words)” value with human tumor cell lines [1] is given as “overall cytotoxicity comparable to the monosubstituted compounds”.

In the case of `CC(=O)c1cc2c(s1)C(=O)c1sccc1C2=O` [Compound 19, 2-Acetyl-4,8-dihydrobenzo[1,2-b:5,4-b′]dithiophene-4,8-dione], the 50% growth inhibitory concentration (GI50) with LOX IMVI is less than 10 nM; in the data set on MALME-3M it was 16.2 nM; in the data set with M14, 17.4 nM; in the data set on SK-MEL-2 it was 33.1 nM; in the data set on SK-MEL-28, less than 10 nM; with SK-MEL-5, less than 10 nM. In addition, the GI50 is 13.8 nM with UACC-257; 17 nM in the data set on UACC-62; 18.2 nM with NCI-H23; 17.4 nM in the data set with NCI-H522; less than 10 nM in the data set with OVCAR-3; 30.9 nM in the data set on OVCAR-8. The concentration for 50% growth inhibition (GI50) with HS 578T was 36.3 nM; in the data set on MDA-MB-435 it was less than 10 nM; in the data set with MDA-N, less than 10 nM; in the data set with BT-549, 17.8 nM; with human tumor cell lines [2], 46.8 nM.

Turning to `CC(=O)c1cc2c(s1)C(=O)c1sc(C(C)=O)cc1C2=O` [Compound 23], the “Cytotoxicity log GI50” value was −7.65 M in the data set with LOX IMVI; −6.65 M in the data set on MALME-3M; −6.36 M with M14; −6.79 M with SK-MEL-2; −6.69 M in the data set with SK-MEL-28; −6.50 M in the data set with SK-MEL-5. Besides, the “Cytotoxicity log GI50” value is listed as −6.78 M with UACC-257; −6.63 M with UACC-62; −6.54 M in the data set with NCI-H23; −6.42 M with NCI-H522; −7.53 M in the data set with OVCAR-3; −6.64 M in the data set with OVCAR-8. The “Cytotoxicity log GI50” value is −6.55 M in the data set with HS 578T, −6.64 M in the data set with MDA-MB-435, −6.71 M in the data set on MDA-N and −6.04 M with BT-549. In the data set on human tumor cell lines [2], the “Cytotoxicity log GI50, Mean Value” is −6.47 M.

On to `CC(O)c1cc2c(s1)C(=O)c1sc(C(C)O)cc1C2=O` (stereo not shown) [Compound 24], for which the “Cytotoxicity log GI50” value was −6.92 M in the data set on LOX IMVI; −6.82 M with MALME-3M; −6.81 M in the data set with M14; −6.69 M in the data set with SK-MEL-2; −6.63 M in the data set on SK-MEL-28; −6.85 M in the data set with SK-MEL-5. The “Cytotoxicity log GI50” value is −6.79 M in the data set on UACC-257; −6.61 M with UACC-62; −6.36 M in the data set on HL-60(TB); −6.72 M with NCI-H23; −6.40 M in the data set with NCI-H522; −6.44 M with OVCAR-3. Further, the “Cytotoxicity log GI50” value is listed as −6.58 M in the data set on OVCAR-8; −6.50 M in the data set on HS 578T; −6.80 M with MDA-MB-435; −6.83 M with MDA-N; −6.71 M in the data set with BT-549. In the data set with human tumor cell lines [2], the “Cytotoxicity log GI50, Mean Value” was −6.32 M.
